Assay results reported in PubChem BioAssay AID248 (DTP/NCI, 2004).
“And” between values parts separate entries of the source, which are not always exact repeats. Equal entries are not always repeated. Inconclusive results and toxic doses are left out.

System: L1210 leukemia ip in BDF1 mice, survival T/C
Assay: NCI In Vivo Anticancer Drug Screen. Data for tumor model L1210 Leukemia (intraperitoneal) in B6D2F1 (BDF1) mice
Conditions: endpoint: mean survival time, higher = longer survival
Outline: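 Mice bearing the transplanted tumor received compound or vehicle. Survival of the treated group was divided by that of the vehicle-treated control group to give the ratio.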

[1] = dose: 100.0 mg/kg/injection, schedule: Q01DX001 (ip), vehicle: carboxymethylcellulose (CMC)
[2] = dose: 200.0 mg/kg/injection, schedule: Q01DX001 (ip), vehicle: carboxymethylcellulose (CMC)
[3] = dose: 400.0 mg/kg/injection, schedule: Q01DX001 (ip), vehicle: carboxymethylcellulose (CMC)
[4] = dose: 100.0 mg/kg/injection, schedule: Q01DX009 (ip), vehicle: Klucel (hydroxypropylcellulose) (HPC)
[5] = dose: 100.0 mg/kg/injection, schedule: Q04DX003 (ip), vehicle: Klucel (hydroxypropylcellulose) (HPC)
[6] = dose: 200.0 mg/kg/injection, schedule: Q01DX009 (ip), vehicle: Klucel (hydroxypropylcellulose) (HPC)

Structure (SMILES): CC(=O)Nc1ccc(Cc2ccc(NC(C)=O)cc2[N+](=O)[O-])c([N+](=O)[O-])c1
- T/C [1]: 105 % of control
- T/C [2]: 100 % of control
- T/C [3]: 93 % of control

Structure (SMILES): COc1cc2ccc(Cc3nccc4cc(OC)c(OC)cc34)cc2cc1OC
- T/C [4]: 91 % of control
- T/C [5]: 100 % of control
- T/C [6]: 106 % of control
- T/C (dose: 200.0 mg/kg/injection, schedule: Q04DX003 (ip), vehicle: Klucel (hydroxypropylcellulose) (HPC)): 92 % of control
- T/C (dose: 400.0 mg/kg/injection, schedule: Q01DX009 (ip), vehicle: Klucel (hydroxypropylcellulose) (HPC)): 101 % of control
- T/C (dose: 400.0 mg/kg/injection, schedule: Q04DX003 (ip), vehicle: Klucel (hydroxypropylcellulose) (HPC)): 92 % of control

Structure (SMILES): CCC1CCNCC1
- T/C (dose: 25.0 mg/kg/injection, schedule: Q01DX009 (ip), vehicle: saline): 113 % of control
- T/C (dose: 50.0 mg/kg/injection, schedule: Q01DX009 (ip), vehicle: saline): 102 % of control

Structure (SMILES): CC1CCC(C)C([N+](C)(C)C)C1 (configuration not stated)
- T/C (dose: 12.5 mg/kg/injection, schedule: Q04DX003 (ip), vehicle: saline): 98 % of control
- T/C (dose: 25.0 mg/kg/injection, schedule: Q04DX003 (ip), vehicle: saline): 98 % of control
- T/C (dose: 50.0 mg/kg/injection, schedule: Q04DX003 (ip), vehicle: saline): 95 % of control
- T/C (dose: 75.0 mg/kg/injection, schedule: Q04DX003 (ip), vehicle: saline): 93 % of control

Structure (SMILES): CC(C)=CCC(CCN(C)C)(C(N)=O)c1ccc2ccccc2c1 (configuration not stated)
- T/C (dose: 12.5 mg/kg/injection, schedule: Q01DX009 (ip), vehicle: Klucel (hydroxypropylcellulose) (HPC)): 93 % of control
- T/C (dose: 25.0 mg/kg/injection, schedule: Q01DX009 (ip), vehicle: Klucel (hydroxypropylcellulose) (HPC)): 86 % of control
- T/C (dose: 50.0 mg/kg/injection, schedule: Q01DX009 (ip), vehicle: Klucel (hydroxypropylcellulose) (HPC)): 91 % of control

Structure (SMILES): CC(C)NCC(=O)c1ccc(O)c(O)c1
- T/C (dose: 20.0 mg/kg/injection, schedule: Q01DX Z (ip), vehicle: saline): 98 % of control
- T/C (dose: 20.0 mg/kg/injection, schedule: Q#A X Z (ip), vehicle: methylcellulose (MC)): 96 % of control
- T/C (dose: 25.0 mg/kg/injection, schedule: Q01DX Z (ip), vehicle: carboxymethylcellulose (CMC)): 107 % of control
- T/C (dose: 25.0 mg/kg/injection, schedule: Q03DX Z (ip), vehicle: carboxymethylcellulose (CMC)): 93 % of control
- T/C (dose: 29.0 mg/kg/injection, schedule: Q03HX024 (ip), vehicle: saline): 95 % of control
- T/C (dose: 31.0 mg/kg/injection, schedule: Q01DX Z (ip), vehicle: carboxymethylcellulose (CMC)): 106 % of control
- T/C (dose: 40.0 mg/kg/injection, schedule: Q01DX Z (ip), vehicle: saline): 107 % of control and 89 % of control
- T/C (dose: 43.0 mg/kg/injection, schedule: Q03HX024 (ip), vehicle: saline): 104 % of control
- T/C (dose: 49.0 mg/kg/injection, schedule: Q01DX Z (ip), vehicle: saline): 122 % of control
- T/C (dose: 50.0 mg/kg/injection, schedule: Q01DX001 (ip), vehicle: saline): 96 % of control
- T/C (dose: 50.0 mg/kg/injection, schedule: Q01DX Z (ip), vehicle: carboxymethylcellulose (CMC)): 104 % of control
- T/C (dose: 50.0 mg/kg/injection, schedule: Q03DX Z (ip), vehicle: carboxymethylcellulose (CMC)): 93 % of control
- T/C (dose: 59.0 mg/kg/injection, schedule: Q04DX003 (ip), vehicle: saline): 94 % of control
- T/C (dose: 62.0 mg/kg/injection, schedule: Q01DX Z (ip), vehicle: carboxymethylcellulose (CMC)): 119 % of control
- T/C (dose: 64.0 mg/kg/injection, schedule: Q03HX024 (ip), vehicle: saline): 105 % of control
- T/C (dose: 80.0 mg/kg/injection, schedule: Q01DX Z (ip), vehicle: saline): 97 % of control and 119 % of control
- T/C (dose: 88.0 mg/kg/injection, schedule: Q04DX003 (ip), vehicle: saline): 100 % of control
- T/C (dose: 96.0 mg/kg/injection, schedule: Q03HX024 (ip), vehicle: saline): 106 % of control
- T/C (dose: 100.0 mg/kg/injection, schedule: Q01DX001 (ip), vehicle: saline): 107 % of control
- T/C (dose: 100.0 mg/kg/injection, schedule: Q01DX009 (ip), vehicle: saline): 104 % of control
- T/C (dose: 100.0 mg/kg/injection, schedule: Q01DX Z (ip), vehicle: carboxymethylcellulose (CMC)): 115 % of control
- T/C (dose: 100.0 mg/kg/injection, schedule: Q03DX Z (ip), vehicle: carboxymethylcellulose (CMC)): 100 % of control
- T/C (dose: 100.0 mg/kg/injection, schedule: Q04DX003 (ip), vehicle: saline): 103 % of control
- T/C (dose: 120.0 mg/kg/injection, schedule: Q03DX Z (ip), vehicle: methylcellulose (MC)): 102 % of control
- T/C (dose: 125.0 mg/kg/injection, schedule: Q01DX Z (ip), vehicle: carboxymethylcellulose (CMC)): 105 % of control
- T/C (dose: 131.0 mg/kg/injection, schedule: Q04DX003 (ip), vehicle: saline): 98 % of control
- T/C (dose: 143.0 mg/kg/injection, schedule: Q01DX009 (ip), vehicle: saline): 114 % of control
- T/C (dose: 143.0 mg/kg/injection, schedule: Q03HX024 (ip), vehicle: saline): 101 % of control and 118 % of control
- T/C (dose: 160.0 mg/kg/injection, schedule: Q01DX Z (ip), vehicle: saline): 104 % of control and 121 % of control
- T/C (dose: 196.0 mg/kg/injection, schedule: Q04DX003 (ip), vehicle: saline): 104 % of control
- T/C (dose: 200.0 mg/kg/injection, schedule: Q01DX001 (ip), vehicle: saline): 107 % of control
- T/C (dose: 200.0 mg/kg/injection, schedule: Q01DX009 (ip), vehicle: saline): 115 % of control
- T/C (dose: 200.0 mg/kg/injection, schedule: Q03DX Z (ip), vehicle: carboxymethylcellulose (CMC)): 100 % of control
- T/C (dose: 200.0 mg/kg/injection, schedule: Q04DX003 (ip), vehicle: saline): 109 % of control
- T/C (dose: 210.0 mg/kg/injection, schedule: Q01DX009 (ip), vehicle: saline): 184 % of control
- T/C (dose: 210.0 mg/kg/injection, schedule: Q03HX024 (ip), vehicle: saline): 116 % of control
- T/C (dose: 240.0 mg/kg/injection, schedule: Q03DX Z (ip), vehicle: methylcellulose (MC)): 113 % of control
- T/C (dose: 288.0 mg/kg/injection, schedule: Q01DX001 (ip), vehicle: saline): 102 % of control
- T/C (dose: 288.0 mg/kg/injection, schedule: Q04DX003 (ip), vehicle: saline): 154 % of control
- T/C (dose: 320.0 mg/kg/injection, schedule: Q01DX009 (ip), vehicle: saline): 104 % of control
- T/C (dose: 320.0 mg/kg/injection, schedule: Q03HX024 (ip), vehicle: saline): 111 % of control
- T/C (dose: 400.0 mg/kg/injection, schedule: Q01DX001 (ip), vehicle: saline): 107 % of control
- T/C (dose: 400.0 mg/kg/injection, schedule: Q01DX009 (ip), vehicle: saline): 107 % of control
- T/C (dose: 400.0 mg/kg/injection, schedule: Q01DX Z (ip), vehicle: carboxymethylcellulose (CMC)): 111 % of control
- T/C (dose: 400.0 mg/kg/injection, schedule: Q03DX Z (ip), vehicle: carboxymethylcellulose (CMC)): 114 % of control
- T/C (dose: 400.0 mg/kg/injection, schedule: Q04DX003 (ip), vehicle: saline): 104 % of control
- T/C (dose: 430.0 mg/kg/injection, schedule: Q04DX003 (ip), vehicle: saline): 103 % of control
- T/C (dose: 478.0 mg/kg/injection, schedule: Q01DX009 (ip), vehicle: saline): 116 % of control
- T/C (dose: 480.0 mg/kg/injection, schedule: Q03DX Z (ip), vehicle: methylcellulose (MC)): 102 % of control

Structure (SMILES): CN=C(c1ccc(NC(=O)c2ccc(C(=O)Nc3ccc(C(=NC)N(C)Cc4ccccc4)cc3)cc2)cc1)N(C)Cc1ccccc1
- T/C (dose: 1.88 mg/kg/injection, schedule: Q01DX Z (ip), vehicle: saline): 104 % of control
- T/C (dose: 3.75 mg/kg/injection, schedule: Q01DX Z (ip), vehicle: saline): 98 % of control
- T/C (dose: 7.5 mg/kg/injection, schedule: Q01DX Z (ip), vehicle: saline): 97 % of control

Structure (SMILES): COc1nc(N)nc2c1ncn2C1OC(CO)CC1O (configuration not stated)
- T/C (dose: 50.0 mg/kg/injection, schedule: Q01DX001 (ip), vehicle: carboxymethylcellulose (CMC)): 93 % of control
- T/C [1]: 93 % of control
- T/C [2]: 93 % of control
- T/C [3]: 96 % of control

Structure (SMILES): O=C(NNC(=O)c1ccc(Br)cc1)c1ccc(Cl)cc1
- T/C (dose: 100.0 mg/kg/injection, schedule: Q01DX001 (ip), vehicle: Klucel (hydroxypropylcellulose) (HPC)): 100 % of control
- T/C [4]: 91 % of control
- T/C (dose: 200.0 mg/kg/injection, schedule: Q01DX001 (ip), vehicle: Klucel (hydroxypropylcellulose) (HPC)): 92 % of control
- T/C [6]: 93 % of control
- T/C (dose: 400.0 mg/kg/injection, schedule: Q01DX001 (ip), vehicle: Klucel (hydroxypropylcellulose) (HPC)): 92 % of control

Structure (SMILES): [O-][n+]1onc2ncccc21
- T/C (dose: 25.0 mg/kg/injection, schedule: Q04DX003 (ip), vehicle: Klucel (hydroxypropylcellulose) (HPC)): 108 % of control
- T/C (dose: 50.0 mg/kg/injection, schedule: Q04DX003 (ip), vehicle: Klucel (hydroxypropylcellulose) (HPC)): 94 % of control
- T/C [5]: 100 % of control and 102 % of control
